This is an account of results in PubChem BioAssay (NCI).

Assay in all cases: NCI anticancer screen, dose series, 48 h
The test system of assay [1] is HCT-15 colon.
Assay [2] deals with MCF7 breast.
In assay [3] the test system is SNB-19 CNS.
Assay [4] concerns BT-549 breast.
The test system of assay [5] is NCI/ADR-RES ovarian.
The subject of assay [6] is OVCAR-5 ovarian.
The subject of assay [7] is 786-0 renal.
In assay [8] the test system is SN12C renal.

Molecules are shown by their SMILES. Where “and” joins values, the source holds several entries; their conditions need not be identical. Equal values may be shown once.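 Cultured in 96-well plates, cells were exposed to test compound for 48 hours across five concentrations. GI50: concentration for 50% inhibition of growth. The concentration for full growth arrest is given as TGI.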

Turning to `CCC1(O)C(=O)OCc2c1cc1n(c2=O)Cc2cc3ccccc3nc2-1` (centres undefined), the TGI was 17.1 µM in assay [1]; 2.06 µM in assay [2]; 0.0667 µM in assay [3]; more than 41.4 µM in assay [4]; 2.15 µM in assay [5]; 1.25 µM in assay [6]. The compound further displayed a TGI in assay [7] of 0.203 µM.

For the compound `Cn1ncc(-c2ccc3c(=O)[nH]nc(CN)c3c2)c1-c1c(F)c(Cl)cc(OC2CC2)c1C#N`, the GI50 in assay [1] was 14.7 µM and 14.3 µM; in assay [2], 10.8 µM and 10.2 µM; in assay [3], 15.3 µM and 14.6 µM; in assay [4], 14.9 µM and 14.3 µM; in assay [8] it was 13.5 µM and 11.8 µM; in assay [5], 35 µM and 25.5 µM. Besides, the GI50 in assay [6] was 20.4 µM and 16.8 µM; in assay [7] it was 13.4 µM and 12.3 µM. Also, the TGI in assay [1] was 30 µM and 28.9 µM; in assay [2], 23.6 µM and 23.3 µM; in assay [3], 31.7 µM and 29.5 µM; in assay [4], 30.2 µM and 28.6 µM; in assay [8] it was 28.7 µM and 25.3 µM; in assay [5], more than 100 µM. For the same compound, the TGI was 77 µM and 44.7 µM in assay [6]; 29.5 µM and 26 µM in assay [7].

As for `CC1=C2C(=C[C@@](C)(CO)[C@@H]2OC(=O)N(C)CCN(C)C(=O)OC(C)(C)C)C(=O)[C@](C)(O)C12CC2`, the GI50 is 3.98 µM in assay [1]; 3.35 µM in assay [2]; 10.9 µM in assay [3]; 6.61 µM in assay [4]; 11.1 µM in assay [8]; 3.05 µM in assay [5]. The GI50 was 2.67 µM in assay [6] and 11.6 µM in assay [7]. Also, the TGI in assay [1] was more than 50 µM; in assay [2], more than 50 µM; in assay [3] it was more than 50 µM; in assay [4], 20.6 µM; in assay [8] it was more than 50 µM; in assay [5], 23.7 µM. The TGI in assay [6] was more than 50 µM; in assay [7], 37.8 µM.

Turning to `CNC(=S)Nc1ccc(OC)c2ccccc12`, the TGI in assay [1], in assay [2], in assay [3], in assay [4], in assay [8] and in assay [5] was more than 10 µM throughout. Also, the TGI in assay [6] and in assay [7] was more than 10 µM each time.

`CC(=O)c1c(C(F)(F)F)n([O-])c2ccccc2[n+]1=O`: the GI50 in assay [1] was 1.29 µM; in assay [2] it was 0.873 µM; in assay [3], 4.77 µM; in assay [4] it was 2.48 µM; in assay [8] it was 1.07 µM; in assay [5], 1.49 µM. The results for the GI50 in assay [6] and in assay [7] were 1.18 µM and 2.86 µM, respectively. The TGI was 50.4 µM in assay [1]; 4.08 µM in assay [2]; 18.5 µM in assay [3]; 9.06 µM in assay [4]; 3.17 µM in assay [8]; 2.93 µM in assay [5]. Further, the results for the TGI in assay [6] and in assay [7] were 3.67 µM and 15.3 µM, respectively.

As for `Oc1cccc(Nc2nc3ccccc3c3occc23)c1`, the GI50 in assay [1] was 15 µM; in assay [2], 7.4 µM; in assay [3] it was 10.5 µM; in assay [4], 14.2 µM; in assay [8] it was 13.2 µM; in assay [5], 11.3 µM. Moreover, the results for the GI50 in assay [6] and in assay [7] were 12.7 µM and 9.73 µM, respectively. The TGI was 33.8 µM in assay [1]; 21 µM in assay [2]; 22.2 µM in assay [3]; 27.2 µM in assay [4]; 25.9 µM in assay [8]; 23.4 µM in assay [5]. Further, the TGI in assay [6] turned out to be 25.3 µM; in assay [7] it was 21.4 µM.

Turning to `O=C1OCC2=C1C(c1cccc(F)c1)c1cc3c(cc1N2CCO)OCO3` (centres undefined), the GI50 in assay [1] was 1.08 µM; in assay [2], 1.44 µM; in assay [3] it was 3 µM; in assay [4], 1.46 µM; in assay [8], 3.05 µM; in assay [5], 2.02 µM. The values for the GI50 in assay [6] and in assay [7] were 4.33 µM and 1.86 µM, respectively. Also, the TGI in assay [1], in assay [2], in assay [3], in assay [4], in assay [8] and in assay [5] was more than 50 µM throughout. For the same compound, the TGI in assay [6] and in assay [7] was more than 50 µM throughout.

In the case of `CN1CCN(C(=S)N(C)C(=O)c2ccco2)CC1`, the TGI in assay [1], in assay [2], in assay [3], in assay [4], in assay [8] and in assay [6] was more than 100 µM throughout. Also, the TGI in assay [7] was more than 100 µM.

On to `CCN1C(=O)N(CC)C2C1NN=c1s/c(=C\c3ccc(Cl)cc3Cl)c(=O)n12` (centres undefined), for which the GI50 in assay [1] was 0.035 µM; in assay [2] it was 0.0322 µM; in assay [3], 0.0503 µM; in assay [4], 0.0302 µM; in assay [8], 0.0482 µM; in assay [5], 0.0301 µM. Further, the GI50 was 0.0547 µM in assay [6] and 0.0509 µM in assay [7]. Further, the TGI in assay [1] is more than 100 µM; in assay [2] it was more than 43.4 µM; in assay [3], more than 100 µM; in assay [4], 2.48 µM; in assay [8], more than 53.4 µM; in assay [5], more than 32 µM. For the same compound, the results for the TGI in assay [6] and in assay [7] were more than 81.5 µM and more than 48.8 µM, respectively.

For the compound `c1ccc(NN(Cc2cnccn2)c2ccccc2)cc1`, the TGI in assay [1], in assay [2], in assay [3], in assay [4], in assay [8] and in assay [5] was more than 100 µM in each case. The TGI in assay [6] and in assay [7] was more than 100 µM in each case.

With `C[C@@H](NC(C#N)c1ccco1)c1ccccc1` (some centres undefined), the TGI in assay [1], in assay [2], in assay [3], in assay [4], in assay [8] and in assay [5] was more than 100 µM each time. The TGI in assay [6] and in assay [7] was more than 100 µM each time.
